Assay results as given in ChEMBL document CHEMBL3621089, “Fluorophore-tagged pharmacophores for antitumor cytotoxicity: Modified chiral lipidic dialkynylcarbinols for cell imaging” (Bioorg Med Chem Lett, 2015).

How the values were obtained:
[1] = test system: HCT-116; experiment: Cytotoxicity against human HCT116 cells assessed as live cells after 48 to 72 hrs by MTT assay; type: functional, cell-based
[2] = test system: HCT-116; experiment: Drug uptake in human HCT116 cells at 1 uM after 30 mins by confocal microscopy; type: ADME, cell-based; conditions: hct-116, 0.5 h
[3] = test system: HeLa; experiment: Drug uptake in human HeLa cells at 1 uM after 30 mins using Nile Red by confocal microscopy; type: ADME, cell-based; conditions: 0.5 h
[4] = test system: HCT-116; experiment: Cytotoxicity against human HCT116 cells; type: functional, cell-based

Drug uptake [2] | Drug uptake [3] | Compound | IC50 [1] [nM] | IC50 [4] [nM]
Active | – | C#C[C@H](O)C#CCCCCCCCCCCc1cn(-c2cc3ccc(O)cc3oc2=O)nn1 | 3000 | –
Active | – | C#C[C@H](O)C#CCCCCCCCCCCc1cn(CCCNc2ccc([N+](=O)[O-])c3nonc23)nn1 | 1100 | –

More lines, now with the values behind:

Compound | Drug uptake [2] | Drug uptake [3] | IC50 [1] [nM] | IC50 [4] [nM]
C#CCCCCCCCCCCC#C[C@@H](O)C#C | – | – | 370 | –
C#C[C@H](O)C#CCCCCCCCCCCc1cn(CCCCc2ccc3ccc4cccc5ccc2c3c45)nn1 | – | – | 900 | –
C#C[C@H](O)C#CCCCCCCCCCCc1cn(CC2=C3C(C)=CC(C)=[N+]3[B-](F)(F)n3c(C)cc(C)c32)nn1 | Active | Active | 10000 | –
C#C[C@@H](O)/C=C/CCCCCCCCCCCCCCC | – | – | 90 | 60
